The values below come from patent US20240174662A1, “SMALL MOLECULE INHIBITORS OF SALT INDUCIBLE KINASES” (Janssen Biotech, Inc., priority 2021, published 2024).

SMILES strings stand for the structures. Some results are limits rather than exact numbers.

For the assay, the target named is SIK2 (Homo sapiens (Human), UniProt Q9H0K1). The assay is described as follows: SIK2 Enzymatic Assay Version 2 (High ATP). It counts as biochemical. To be noted: 3 mM ATP and 200 μM HDAC5tide final, ADP-Glo Max luminescence. The procedure, abridged:
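Run at room temperature; SIK2 enzyme at 6 nM (2× final) preincubated with compound 30 min before reaction. ADP formation detected by ADP-Glo Max (2 h reagent, 1 h detection) with luminescence read-out.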

Chain of SIK2 (Q9H0K1 whole entry, species assumed): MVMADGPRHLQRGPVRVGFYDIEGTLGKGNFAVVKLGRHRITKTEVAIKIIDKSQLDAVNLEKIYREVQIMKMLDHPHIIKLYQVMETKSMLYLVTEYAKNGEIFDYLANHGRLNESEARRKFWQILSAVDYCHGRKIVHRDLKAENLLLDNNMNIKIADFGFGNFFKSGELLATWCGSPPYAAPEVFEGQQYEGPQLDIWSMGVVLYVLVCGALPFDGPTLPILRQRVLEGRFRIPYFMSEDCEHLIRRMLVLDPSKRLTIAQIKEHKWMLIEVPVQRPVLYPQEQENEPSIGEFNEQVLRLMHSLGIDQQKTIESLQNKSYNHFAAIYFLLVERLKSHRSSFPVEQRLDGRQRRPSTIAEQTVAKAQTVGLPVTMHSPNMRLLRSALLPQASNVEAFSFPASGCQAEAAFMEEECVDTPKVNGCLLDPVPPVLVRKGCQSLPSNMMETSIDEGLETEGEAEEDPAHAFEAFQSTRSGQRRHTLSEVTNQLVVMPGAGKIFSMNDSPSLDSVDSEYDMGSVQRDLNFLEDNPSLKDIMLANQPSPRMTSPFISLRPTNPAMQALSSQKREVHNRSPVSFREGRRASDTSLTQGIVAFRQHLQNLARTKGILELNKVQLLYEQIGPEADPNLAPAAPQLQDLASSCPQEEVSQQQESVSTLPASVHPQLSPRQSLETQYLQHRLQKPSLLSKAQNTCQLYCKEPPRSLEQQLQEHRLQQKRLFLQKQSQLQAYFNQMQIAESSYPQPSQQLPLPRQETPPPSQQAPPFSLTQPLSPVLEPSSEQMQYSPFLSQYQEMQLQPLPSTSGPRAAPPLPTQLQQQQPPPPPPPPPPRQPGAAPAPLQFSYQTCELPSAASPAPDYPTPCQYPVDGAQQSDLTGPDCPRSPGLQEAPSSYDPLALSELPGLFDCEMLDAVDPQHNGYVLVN

For the compound `CNC1(COc2cnn(C)c2-c2ccn3nc(NC(=O)C4CC4)cc3c2)CC1` [Example 434, N-[5-[2-methyl-4-[[1-(methylamino)cyclopropyl]methoxy]pyrazol-3-yl]pyrazolo[1,5-a]pyridin-2-yl]cyclopropanecarboxamide], the midpoint of inhibition, the IC50, lay at 0.101 µM. To `COC1(COc2cnn(C)c2-c2ccn3nc(NC(=O)C4CC4)cc3c2)CN(C)C1` [Example 406, N-[5-[4-[(3-methoxy-1-methyl-azetidin-3-yl)methoxy]-2-methyl-pyrazol-3-yl]pyrazolo[1,5-a]pyridin-2-yl]cyclopropanecarboxamide] belongs 0.174 µM; to `CCN1CC[C@@H]1COc1cnn(C)c1-c1ccn2nc(NC(=O)[C@H]3C[C@@H]3C)cc2c1` [Example 25, (1S,2S)—N-[5-[4-[[(2R)-1-ethylazetidin-2-yl]methoxy]-2-methyl-pyrazol-3-yl]pyrazolo[1,5-a]pyridin-2-yl]-2-methyl-cyclopropanecarboxamide], 0.0058 µM. With `CCN1CC[C@H]1COc1cnn(C)c1-c1ccn2nc(NC(=O)C3CC3)cc2c1` [Example 47, N-[5-[4-[[(2S)-1-ethylazetidin-2-yl]methoxy]-2-methyl-pyrazol-3-yl]pyrazolo[1,5-a]pyridin-2-yl]cyclopropanecarboxamide] the figure was 0.0877 µM; with `Cc1onc(OCC2(C#N)CNC2)c1-c1ccn2nc(NC(=O)C3CC3)cc2c1` [Example 77, N-[5-[3-[(3-cyanoazetidin-3-yl)methoxy]-5-methyl-isoxazol-4-yl]pyrazolo[1,5-a]pyridin-2-yl]cyclopropanecarboxamide], 0.0129 µM.

As for `Cc1cc(Nc2cc3cc(-c4c(O[C@@H]5COC[C@@H]5C)cnn4C)ccn3n2)nc(C)n1` (single isomer, unassigned) [Example 445, (3*S,4*S)—N-(2,6-dimethylpyrimidin-4-yl)-5-[2-methyl-4-(4-methyltetrahydrofuran-3-yl)oxy-pyrazol-3-yl]pyrazolo[1,5-a]pyridin-2-amine], inhibition was half-maximal at 0.0789 µM (IC50).

Take `CO[C@@]1(COc2noc(C)c2-c2ccn3nc(NC(=O)C4CC4)cc3c2)CCNC1` (single isomer, unassigned) [Example 209, (*S)—N-(5-(3-((3-methoxypyrrolidin-3-yl)methoxy)-5-methylisoxazol-4-yl)pyrazolo[1,5-a]pyridin-2-yl)cyclopropanecarboxamide]: the half-inhibitory concentration (IC50) amounted to 0.0149 µM. Compound `C[C@H]1[C@H](OCc2cnn(C)c2-c2ccn3nc(NC(=O)C4CC4)cc3c2)CN1C` [Example 190, N-[5-[4-[[(2S,3R)-1,2-dimethylazetidin-3-yl]oxymethyl]-2-methyl-pyrazol-3-yl]pyrazolo[1,5-a]pyridin-2-yl]cyclopropanecarboxamide] showed an IC50 of 0.0265 µM.

Turning to `Cn1ncc(CO[C@@H]2CNC[C@H]2F)c1-c1ccn2nc(NC(=O)C3CC3)cc2c1` [Example 466, N-[5-[4-[[(3R,4R)-4-fluoropyrrolidin-3-yl]oxymethyl]-2-methyl-pyrazol-3-yl]pyrazolo[1,5-a]pyridin-2-yl]cyclopropanecarboxamide], the IC50 is 0.0807 µM. Compound `CCN1CC[C@H]1COc1cnn(C)c1-c1ccn2nc(Nc3cc(C)nc(C(F)(F)F)n3)cc2c1` [Example 168, 5-[4-[[(2S)-1-ethylazetidin-2-yl]methoxy]-2-methyl-pyrazol-3-yl]-N-[6-methyl-2-(trifluoromethyl)pyrimidin-4-yl]pyrazolo[1,5-a]pyridin-2-amine] yielded an IC50 of 0.023 µM.

`Cc1cc(Nc2cc3cc(-c4c(OC[C@@H]5CC(=O)N(C)C5)cnn4C)ccn3n2)nc(C)n1` (single isomer, unassigned) [Example 35, *R-4-[[5-[2-[(2,6-dimethylpyrimidin-4-yl)amino]pyrazolo[1,5-a]pyridin-5-yl]-1-methyl-pyrazol-4-yl]oxymethyl]-1-methyl-pyrrolidin-2-one] yielded an IC50 of 0.0192 µM. To `CN1CC[C@@H]1COc1cnn(C)c1-c1ccn2nc(Nc3cnc(C(F)(F)F)cn3)cc2c1` [Example 117, 5-[2-methyl-4-[[(2R)-1-methylazetidin-2-yl]methoxy]pyrazol-3-yl]-N-[5-(trifluoromethyl)pyrazin-2-yl]pyrazolo[1,5-a]pyridin-2-amine] belongs 0.0088 µM. Compound `Cn1ncc(OC[C@H]2CCN2)c1-c1ccn2nc(Nc3ccc(C4CC4)nn3)cc2c1` [Example 394, 5-[4-[[(2R)-azetidin-2-yl]methoxy]-2-methyl-pyrazol-3-yl]-N-(6-cyclopropylpyridazin-3-yl)pyrazolo[1,5-a]pyridin-2-amine] yielded an IC50 of 0.103 µM. To `CN1CC2(CCOCC2)[C@H]1COc1cnn(C)c1-c1ccn2nc(NC(=O)C3CC3)cc2c1` (single isomer, unassigned) [Example 59, (*S)—N-[5-[2-methyl-4-[(2-methyl-7-oxa-2-azaspiro[3.5]nonan-3-yl)methoxy]pyrazol-3-yl]pyrazolo[1,5-a]pyridin-2-yl]cyclopropanecarboxamide] belongs 0.69 µM; to `COCc1cc(Nc2cc3cc(-c4c(O[C@H]5CCN(C)C5)cnn4C)ccn3n2)ncn1` [Example 461, N-[6-(methoxymethyl)pyrimidin-4-yl]-5-[2-methyl-4-[(3S)-1-methylpyrrolidin-3-yl]oxy-pyrazol-3-yl]pyrazolo[1,5-a]pyridin-2-amine], 0.0724 µM; to `CCN1CCC[C@H]1COc1cnn(C)c1-c1ccn2nc(NC(=O)C3CC3)cc2c1` [Example 420, N-[5-[4-[[(2S)-1-ethylpyrrolidin-2-yl]methoxy]-2-methyl-pyrazol-3-yl]pyrazolo[1,5-a]pyridin-2-yl]cyclopropanecarboxamide], 0.171 µM. With `Cc1onc(OCC2(c3ccccc3)CNC2)c1-c1ccn2nc(NC(=O)C3CC3)cc2c1` [Example 199, N-[5-[5-methyl-3-[(3-phenylazetidin-3-yl)methoxy]isoxazol-4-yl]pyrazolo[1,5-a]pyridin-2-yl]cyclopropanecarboxamide] the figure was 0.0141 µM.

Turning to `Cc1cc(Nc2cc3cc(-c4c(OC[C@H](O)C5CCC5)cnn4C)ccn3n2)nc(C)n1` (single isomer, unassigned) [Example 444, (*R)-1-cyclobutyl-2-[5-[2-[(2,6-dimethylpyrimidin-4-yl)amino]pyrazolo[1,5-a]pyridin-5-yl]-1-methyl-pyrazol-4-yl]oxy-ethanol], the half-inhibitory concentration (IC50) is 0.155 µM. To `Cc1cncc(Nc2cc3cc(-c4c(CO[C@H]5CN(C)C[C@@H]5C)cnn4C)ccn3n2)n1` [Example 373, (rac-trans)-5-[4-[(1,4-dimethylpyrrolidin-3-yl)oxymethyl]-2-methyl-pyrazol-3-yl]-N-(6-methylpyrazin-2-yl)pyrazolo[1,5-a]pyridin-2-amine] belongs 0.0072 µM.

As to `Cc1cc(Nc2cc3cc(-c4c(O[C@@H]5CNC[C@@H]5F)noc4C)ccn3n2)nc(C)n1` [Example 92, N-(2,6-dimethylpyrimidin-4-yl)-5-[3-[(3R,4S)-4-fluoropyrrolidin-3-yl]oxy-5-methyl-isoxazol-4-yl]pyrazolo[1,5-a]pyridin-2-amine], the concentration for half-maximal inhibition (IC50) came out at 0.0043 µM. To `COc1nnc(Nc2cc3cc(-c4c(OC[C@H]5CCN5C)cnn4C)ccn3n2)cc1C` [Example 121, N-(6-methoxy-5-methyl-pyridazin-3-yl)-5-[2-methyl-4-[[(2R)-1-methylazetidin-2-yl]methoxy]pyrazol-3-yl]pyrazolo[1,5-a]pyridin-2-amine] belongs 0.001 µM.

The compound `Cn1ncc(OC[C@H]2CCN2)c1-c1ccn2nc(Nc3cncc(-n4cccn4)n3)cc2c1` [Example 291, 5-[4-[[(2R)-azetidin-2-yl]methoxy]-2-methyl-pyrazol-3-yl]-N-(6-pyrazol-1-ylpyrazin-2-yl)pyrazolo[1,5-a]pyridin-2-amine] showed a 50% inhibitory concentration (IC50) of 0.0312 µM.

In the case of `Cc1cncc(Nc2cc3cc(-c4c(CO[C@H]5CN(C)C[C@H]5C)cnn4C)ccn3n2)n1` (stereo in doubt) [Example 370, CIS-Rac-5-[4-[(1,4-dimethylpyrrolidin-3-yl)oxymethyl]-2-methyl-pyrazol-3-yl]-N-(6-methylpyrazin-2-yl)pyrazolo[1,5-a]pyridin-2-amine], the IC50 was determined as 0.0029 µM. To `CC(C)CN1CC[C@@H]1COc1cnn(C)c1-c1ccn2nc(NC(=O)C3CC3)cc2c1` [Example 244, N-[5-[4-[[(2R)-1-isobutylazetidin-2-yl]methoxy]-2-methyl-pyrazol-3-yl]pyrazolo[1,5-a]pyridin-2-yl]cyclopropanecarboxamide] belongs 0.0063 µM; to `Cc1onc(O[C@@H]2CN[C@H](C(F)F)C2)c1-c1ccn2nc(NC(=O)C3CC3)cc2c1` [Example 389, N-[5-[3-[(3S,5S)-5-(difluoromethyl)pyrrolidin-3-yl]oxy-5-methyl-isoxazol-4-yl]pyrazolo[1,5-a]pyridin-2-yl]cyclopropanecarboxamide], 0.125 µM. The compound `CCN1CC[C@@H]1COc1cnn(C)c1-c1ccn2nc(Nc3cc(C)nc(C4CC4)n3)cc2c1` [Example 171, N-(2-cyclopropyl-6-methyl-pyrimidin-4-yl)-5-[4-[[(2R)-1-ethylazetidin-2-yl]methoxy]-2-methyl-pyrazol-3-yl]pyrazolo[1,5-a]pyridin-2-amine] gave an IC50 of less than 0.000847 µM.

For the compound `Cc1onc(OC[C@@H]2COCCN2)c1-c1ccn2nc(NC(=O)C3CC3)cc2c1` [Example 497], it took 2.53 µM to reach half-maximal inhibition (IC50). To `CO[C@]1(COc2cnn(C(F)F)c2-c2ccn3nc(Nc4cc(C)nc(C)n4)cc3c2)CCNC1` (single isomer, unassigned) [Example 261, (*R)-5-(1-(difluoromethyl)-4-((3-methoxypyrrolidin-3-yl)methoxy)-1H-pyrazol-5-yl)-N-(2,6-dimethylpyrimidin-4-yl)pyrazolo[1,5-a]pyridin-2-amine] belongs 0.0055 µM; to `Cc1ncc(Nc2cc3cc(-c4c(OC[C@H]5CCN5C[C@H](C)O)cnn4C)ccn3n2)nc1C` [Example 297, (2S)-1-[(2R)-2-[[5-[2-[(5,6-dimethylpyrazin-2-yl)amino]pyrazolo[1,5-a]pyridin-5-yl]-1-methyl-pyrazol-4-yl]oxymethyl]azetidin-1-yl]propan-2-ol], less than 0.000847 µM.

What is called IC50 is the concentration needed to halve the response being measured. The low end stands for higher potency, the high end for lower potency.
